The text below walks through data of paper PMC6689002, “Anthocyanins, delphinidin-3-O-glucoside and cyanidin-3-O-glucoside, inhibit immune checkpoints in human colorectal cancer cells in vitro and in silico” (Scientific Reports, 2019).

Test [1] has as its target T1, programmed death-ligand 1 (PD-L1) (Homo sapiens, UniProt Q9NZQ7).
T1 construct: gene CD274; recombinant human PD-L1 protein
The test can be described thus: intrinsic fluorescence quenching (Stern-Volmer, static quenching). The test is classed as binding.

The target in test [2] is T2, programmed cell death protein 1 (PD-1) (Homo sapiens, UniProt Q15116).
T2 construct: gene PDCD1; human PD-1 protein
T2 sequence (Q15116 25-288): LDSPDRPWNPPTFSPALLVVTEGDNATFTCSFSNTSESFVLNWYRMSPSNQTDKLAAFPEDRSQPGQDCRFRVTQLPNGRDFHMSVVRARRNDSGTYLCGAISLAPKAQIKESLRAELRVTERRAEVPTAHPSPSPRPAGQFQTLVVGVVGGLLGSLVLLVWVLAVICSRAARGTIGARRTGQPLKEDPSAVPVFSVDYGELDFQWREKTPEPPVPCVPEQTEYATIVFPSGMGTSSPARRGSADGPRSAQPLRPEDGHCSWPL
The description is as above. The test is classed as binding.

T1 sequence (Q9NZQ7 19-290): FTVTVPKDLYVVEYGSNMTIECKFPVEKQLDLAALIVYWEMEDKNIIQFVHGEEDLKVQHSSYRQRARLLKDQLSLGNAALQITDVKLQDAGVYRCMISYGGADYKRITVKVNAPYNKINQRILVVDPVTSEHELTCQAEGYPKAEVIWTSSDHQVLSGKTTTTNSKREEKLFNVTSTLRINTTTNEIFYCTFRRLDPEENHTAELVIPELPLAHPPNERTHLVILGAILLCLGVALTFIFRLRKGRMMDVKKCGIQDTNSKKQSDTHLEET

As for `OCC1OC(Oc2cc3c(O)cc(O)cc3[o+]c2-c2ccc(O)c(O)c2)C(O)C(O)C1O` (stereo not shown) [C3G, cyanidin-3-O-glucoside], the “intrinsic fluorescence quenching (Stern-Volmer, static quenching)” value in test [1] was “C3G and D3G showed static quenching with both PD-1 and PD-L1”; in test [2], “C3G and D3G showed static quenching with both PD-1 and PD-L1”.
In the case of `OCC1OC(Oc2cc3c(O)cc(O)cc3[o+]c2-c2cc(O)c(O)c(O)c2)C(O)C(O)C1O` (stereo not shown) [D3G, delphinidin-3-O-glucoside], the “intrinsic fluorescence quenching (Stern-Volmer, static quenching)” value in test [1] was “C3G and D3G showed static quenching with both PD-1 and PD-L1”; in test [2] it was “C3G and D3G showed static quenching with both PD-1 and PD-L1”.
